Data as given in BigSolDB 2.1.

Brc1cnc2[nH]ccc2c1
solubility (mole fraction)
Conditions | in acetonitrile | in dichloromethane | in ethanol | in ethyl acetate | in isopropanol | in methanol | in methyl acetate | in n-butanol | in n-hexane | in n-propanol
278.15 K | 0.00224 | 0.00083 | 0.0078 | 0.0161 | 0.00779 | 0.00595 | 0.0222 | 0.0154 | 0.00015 | 0.00916
283.15 K | 0.00304 | 0.00133 | 0.00958 | 0.0184 | 0.00915 | 0.00673 | 0.0253 | 0.0177 | 0.00017 | 0.0109
288.15 K | 0.00366 | 0.00216 | 0.0106 | 0.02 | 0.0106 | 0.00779 | 0.0279 | 0.0202 | 0.00019 | 0.0123
293.15 K | 0.00436 | 0.00333 | 0.0125 | 0.0225 | 0.0123 | 0.00882 | 0.0312 | 0.0228 | 0.00021 | 0.0145
298.15 K | 0.00519 | 0.00505 | 0.0139 | 0.0258 | 0.0143 | 0.00972 | 0.0347 | 0.0251 | 0.00024 | 0.0165
303.15 K | 0.00616 | 0.00749 | 0.0158 | 0.0286 | 0.0165 | 0.0111 | 0.0381 | 0.0278 | 0.00027 | 0.0188
308.15 K | 0.00726 | 0.0106 | 0.0177 | 0.0321 | 0.019 | 0.0124 | 0.0419 | 0.0312 | 0.0003 | 0.0209
313.15 K | 0.00858 | 0.0148 | 0.0198 | 0.0363 | 0.0217 | 0.0138 | 0.0459 | 0.0345 | 0.00034 | 0.0237
318.15 K | 0.00981 | – | 0.0222 | 0.0404 | 0.0252 | 0.0153 | 0.0509 | 0.0377 | 0.00036 | 0.0268
323.15 K | 0.0116 | – | 0.0245 | 0.045 | 0.0275 | 0.0171 | 0.0549 | 0.0415 | 0.00041 | 0.0298
